Assay results published in publication PMC7501296, “Rapid and direct control of target protein levels with VHL-recruiting dTAG molecules” (Nature Communications, 2020).
Several values for one entry are separate records, joined by “and”; a condition that tells them apart may be missing. Equal values may be shown once.

What was measured:
Type in all cases: cell-based
[1] = system: PATU-8902 LACZ-FKBP12^F36V clone; test: Antiproliferation, PATU-8902 LACZ-FKBP12F36V clone, 3D-spheroid (CellTiter-Glo); settings: 120 h
Procedure, shortened: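 Viability of cells grown as ultra-low adherent 3D-spheroids was determined with the CellTiter-Glo reagent (Promega). Luminescence was read on either an Envision 2104 plate reader (PerkinElmer) or a Fluostar Omega Reader (BMG Labtech). The resulting data were analyzed with GraphPad PRISM v8.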

[2] = system: EWS502 FKBP12^F36V-EWS/FLI; EWS/FLI^−/− cells; test: Synergy assessment: antiproliferation of EWS502 FKBP12F36V-EWS/FLI; EWS/FLI-/- cells co-treated with dTAGV-1 and dBET6, 72 h
Protocol: Cell viability was assayed in 2D-adherent or ultra-low adherent 3D-spheroids using CellTiter-Glo (Promega)[6],[15]. Luminescence was measured on an Envision 2104 plate reader (PerkinElmer) and Fluostar Omega Reader (BMG Labtech) and data was analyzed using GraphPad PRISM v8. Synergy assessments were performed using CellTiter-Glo (Promega) with the following modifications to the protocol described in the ref. [34]. In brief, EWS502 cells were plated at 1000 cells per well in 50 µL of appropriate media in 384-well white culture plates (Corning) allowed to adhere overnight, and 100 nL of compounds were added using a Janus Workstation pin tool (PerkinElmer) for 72 h. Cell viability was measured by addition of 10 µL of CellTiter-glo (Promega), followed by incubation for 15 minutes at room temperature. Luminescence was measured on an Envision 2104 plate reader (PerkinElmer) and data was analyzed using GraphPad PRISM v8.

[3] = system: PATU-8902 FKBP12^F36V-KRAS^G12V; KRAS^-/- clone; test: Antiproliferation, PATU-8902 FKBP12F36V-KRASG12V; KRAS-/- clone, 2D-monolayer (CellTiter-Glo)
[4] = target: T1, FKBP12^F36V-Nluc (Homo sapiens, UniProt P62942, F37V); test: FKBP12F36V-Nluc dual luciferase assay (293FT); settings: 293FT, 24 h
T1 construct: expressed in transfected cells; host or cells: 293FT
Procedure, shortened: (§1)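 293FT cells expressing FKBP12^WT-Nluc or FKBP12^F36V-Nluc with Fluc were treated with compound for 24 h at 37 °C. Fluc, then Nluc, luminescence was read with Dual-Glo reagents. Values are DMSO-normalised Nluc/Fluc ratios.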

[5] = target: T2, FKBP12^WT-Nluc (Homo sapiens, UniProt P62942); test: FKBP12WT-Nluc dual luciferase assay (293FT); settings: 293FT, 24 h
T2 construct: expressed in transfected cells; host or cells: 293FT
Procedure, shortened: as §1

T1 sequence (P62942 2-108 F37V limits assumed): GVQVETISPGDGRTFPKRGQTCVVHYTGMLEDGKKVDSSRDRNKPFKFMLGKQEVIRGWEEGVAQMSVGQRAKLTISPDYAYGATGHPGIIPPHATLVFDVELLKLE
T2 sequence (P62942 2-108 limits assumed): as the sequence (P62942 2-108 F37V limits assumed) above, with V36F counted along it

## CC[C@H](C(=O)N1CCCC[C@H]1C(=O)O[C@H](CCc1ccc(OC)c(OC)c1)c1ccccc1OCC(=O)NCCCCCCC(=O)N[C@H](C(=O)N1C[C@H](O)C[C@H]1C(=O)N[C@@H](C)c1ccc(-c2scnc2C)cc1)C(C)(C)C)c1cc(OC)c(OC)c(OC)c1 [dTAG^V-1]
[1]; log10[compound] (M) -5.69897, single replicates
  DMSO-normalized antiproliferation: 79.9207 and 69.7647 and 81.656 and 63.0972
[1]; log10[compound] (M) -6.19897, single replicates
  DMSO-normalized antiproliferation: 90.8255 and 93.4576 and 97.8876 and 88.6015
[1]; log10[compound] (M) -6.69897, single replicates
  DMSO-normalized antiproliferation: 116.805 and 103.649 and 110.913 and 111.967
[1]; log10[compound] (M) -7.19897, single replicates
  DMSO-normalized antiproliferation: 115.092 and 118.114 and 123.495 and 124.235
[1]; log10[compound] (M) -7.69897, single replicates
  DMSO-normalized antiproliferation: 125.383 and 125.544 and 131.956 and 99.7395
[1]; log10[compound] (M) -8.19897, single replicates
  DMSO-normalized antiproliferation: 91.6326 and 122.778 and 124.271 and 121.832
[1]; log10[compound] (M) -8.69897, single replicates
  DMSO-normalized antiproliferation: 107.048 and 111.088 and 112.061 and 114.671
[1]; log10[compound] (M) -9.19897, single replicates
  DMSO-normalized antiproliferation: 123.177 and 113.909 and 103.784 and 113.953
[1]; log10[compound] (M) -9.69897, single replicates
  DMSO-normalized antiproliferation: 118.276 and 100.412 and 114.859 and 101.744
[1]; log10[compound] (M) -10.199, single replicates
  DMSO-normalized antiproliferation: 96.4797 and 95.686 and 104.084 and 100.448
[2]; 19.5 nM dTAGV-1 alone
  Average DMSO-normalized ratio used for CI calculation: 0.9622
[2]; 78 nM dTAGV-1 alone
  Average DMSO-normalized ratio used for CI calculation: 1.188
[2]; 312.5 nM dTAGV-1 alone
  Average DMSO-normalized ratio used for CI calculation: 1.089
[2]; 1250 nM dTAGV-1 alone
  Average DMSO-normalized ratio used for CI calculation: 1.112
[2]; 5000 nM dTAGV-1 alone
  Average DMSO-normalized ratio used for CI calculation: 1.06
[2]; co-treatment 19.5 nM dTAGV-1 (log10[M] -7.70927) + 1 nM dBET6 (log10[M] -9.0103)
  DMSO-normalized antiproliferation, Mean: 98.11
[2]; co-treatment 19.5 nM dTAGV-1 (log10[M] -7.70927) + 4 nM dBET6 (log10[M] -8.40824)
  DMSO-normalized antiproliferation, Mean: 98.09
[2]; co-treatment 19.5 nM dTAGV-1 (log10[M] -7.70927) + 15.6 nM dBET6 (log10[M] -7.80618)
  DMSO-normalized antiproliferation, Mean: 79.8
[2]; co-treatment 19.5 nM dTAGV-1 (log10[M] -7.70927) + 62.5 nM dBET6 (log10[M] -7.20412)
  DMSO-normalized antiproliferation, Mean: 50.57
[2]; co-treatment 19.5 nM dTAGV-1 (log10[M] -7.70927) + 250 nM dBET6 (log10[M] -6.60206)
  DMSO-normalized antiproliferation, Mean: 35.76
[2]; co-treatment 78 nM dTAGV-1 (log10[M] -7.10721) + 1 nM dBET6 (log10[M] -9.0103)
  DMSO-normalized antiproliferation, Mean: 113.36
[2]; co-treatment 78 nM dTAGV-1 (log10[M] -7.10721) + 4 nM dBET6 (log10[M] -8.40824)
  DMSO-normalized antiproliferation, Mean: 105.67
[2]; co-treatment 78 nM dTAGV-1 (log10[M] -7.10721) + 15.6 nM dBET6 (log10[M] -7.80618)
  DMSO-normalized antiproliferation, Mean: 83.17
[2]; co-treatment 78 nM dTAGV-1 (log10[M] -7.10721) + 62.5 nM dBET6 (log10[M] -7.20412)
  DMSO-normalized antiproliferation, Mean: 54.14
[2]; co-treatment 78 nM dTAGV-1 (log10[M] -7.10721) + 250 nM dBET6 (log10[M] -6.60206)
  DMSO-normalized antiproliferation, Mean: 36.78
[2]; co-treatment 312.5 nM dTAGV-1 (log10[M] -6.50515) + 1 nM dBET6 (log10[M] -9.0103)
  DMSO-normalized antiproliferation, Mean: 111.14
[2]; co-treatment 312.5 nM dTAGV-1 (log10[M] -6.50515) + 4 nM dBET6 (log10[M] -8.40824)
  DMSO-normalized antiproliferation, Mean: 105.95
[2]; co-treatment 312.5 nM dTAGV-1 (log10[M] -6.50515) + 15.6 nM dBET6 (log10[M] -7.80618)
  DMSO-normalized antiproliferation, Mean: 72.28
[2]; co-treatment 312.5 nM dTAGV-1 (log10[M] -6.50515) + 62.5 nM dBET6 (log10[M] -7.20412)
  DMSO-normalized antiproliferation, Mean: 49.08
[2]; co-treatment 312.5 nM dTAGV-1 (log10[M] -6.50515) + 250 nM dBET6 (log10[M] -6.60206)
  DMSO-normalized antiproliferation, Mean: 33.26
[2]; co-treatment 1250 nM dTAGV-1 (log10[M] -5.90309) + 1 nM dBET6 (log10[M] -9.0103)
  DMSO-normalized antiproliferation, Mean: 89.48
[2]; co-treatment 1250 nM dTAGV-1 (log10[M] -5.90309) + 4 nM dBET6 (log10[M] -8.40824)
  DMSO-normalized antiproliferation, Mean: 74.91
[2]; co-treatment 1250 nM dTAGV-1 (log10[M] -5.90309) + 15.6 nM dBET6 (log10[M] -7.80618)
  DMSO-normalized antiproliferation, Mean: 44.25
[2]; co-treatment 1250 nM dTAGV-1 (log10[M] -5.90309) + 62.5 nM dBET6 (log10[M] -7.20412)
  DMSO-normalized antiproliferation, Mean: 31.06
[2]; co-treatment 1250 nM dTAGV-1 (log10[M] -5.90309) + 250 nM dBET6 (log10[M] -6.60206)
  DMSO-normalized antiproliferation, Mean: 29.68
[2]; co-treatment 5000 nM dTAGV-1 (log10[M] -5.30103) + 1 nM dBET6 (log10[M] -9.0103)
  DMSO-normalized antiproliferation, Mean: 80.15
[2]; co-treatment 5000 nM dTAGV-1 (log10[M] -5.30103) + 4 nM dBET6 (log10[M] -8.40824)
  DMSO-normalized antiproliferation, Mean: 47.93
[2]; co-treatment 5000 nM dTAGV-1 (log10[M] -5.30103) + 15.6 nM dBET6 (log10[M] -7.80618)
  DMSO-normalized antiproliferation, Mean: 27.9
[2]; co-treatment 5000 nM dTAGV-1 (log10[M] -5.30103) + 62.5 nM dBET6 (log10[M] -7.20412)
  DMSO-normalized antiproliferation, Mean: 26.15
[2]; co-treatment 5000 nM dTAGV-1 (log10[M] -5.30103) + 250 nM dBET6 (log10[M] -6.60206)
  DMSO-normalized antiproliferation, Mean: 25.03
[2]; dTAGV-1 log10[M] -5.30103, with DMSO (no dBET6)
  DMSO-normalized antiproliferation, Mean: 106.03
[2]; dTAGV-1 log10[M] -5.90309, with DMSO (no dBET6)
  DMSO-normalized antiproliferation, Mean: 111.22
[2]; dTAGV-1 log10[M] -6.50515, with DMSO (no dBET6)
  DMSO-normalized antiproliferation, Mean: 108.9
[2]; dTAGV-1 log10[M] -7.10721, with DMSO (no dBET6)
  DMSO-normalized antiproliferation, Mean: 118.75
[2]; dTAGV-1 log10[M] -7.70927, with DMSO (no dBET6)
  DMSO-normalized antiproliferation, Mean: 96.22
[3]; log10[compound] (M) -4.69897
  DMSO-normalized antiproliferation: 20.6105 and 17.3638 and 20.4315 and 22.7846
[3]; log10[compound] (M) -5.19897
  DMSO-normalized antiproliferation: 21.3993 and 17.4773 and 18.2 and 18.6602
[3]; log10[compound] (M) -5.69897
  DMSO-normalized antiproliferation: 16.8112 and 15.7934 and 16.8516 and 16.7935
[3]; log10[compound] (M) -5.69897, replicate values
  DMSO-normalized antiproliferation: 4.6597 and 4.418 and 4.149 and 3.87
[3]; log10[compound] (M) -6.19897
  DMSO-normalized antiproliferation: 20.0987 and 17.9241 and 20.6309 and 19.478
[3]; log10[compound] (M) -6.19897, replicate values
  DMSO-normalized antiproliferation: 5.446 and 5.94 and 6.406 and 4.294
[3]; log10[compound] (M) -6.69897
  DMSO-normalized antiproliferation: 25.9066 and 20.9075 and 21.5913 and 21.1711
[3]; log10[compound] (M) -6.69897, replicate values
  DMSO-normalized antiproliferation: 8.244 and 7.637 and 8.006 and 6.772
[3]; log10[compound] (M) -7.19897
  DMSO-normalized antiproliferation: 27.2696 and 25.1897 and 32.757 and 26.1725
[3]; log10[compound] (M) -7.19897, replicate values
  DMSO-normalized antiproliferation: 9.134 and 8.1 and 7.928 and 7.914
[3]; log10[compound] (M) -7.69897
  DMSO-normalized antiproliferation: 32.5281 and 28.8466 and 33.2484 and 29.8055
[3]; log10[compound] (M) -7.69897, replicate values
  DMSO-normalized antiproliferation: 23.295 and 23.6499 and 25.1438 and 20.7638
[3]; log10[compound] (M) -8.19897
  DMSO-normalized antiproliferation: 71.5602 and 70.7086 and 72.3533 and 72.4741
[3]; log10[compound] (M) -8.19897, replicate values
  DMSO-normalized antiproliferation: 58.7893 and 63.6738 and 62.8905 and 55.3819
[3]; log10[compound] (M) -8.69897
  DMSO-normalized antiproliferation: 90.0484 and 84.5598 and 93.7922 and 91.6223
[3]; log10[compound] (M) -8.69897, replicate values
  DMSO-normalized antiproliferation: 97.0333 and 109.013 and 119.265 and 75.6713
[3]; log10[compound] (M) -9.19897
  DMSO-normalized antiproliferation: 99.7014 and 102.892 and 91.8028 and 106.019
[3]; log10[compound] (M) -9.19897, replicate values
  DMSO-normalized antiproliferation: 104.958 and 110.142 and 126.275 and 110.446
[3]; log10[compound] (M) -9.69897, replicate values
  DMSO-normalized antiproliferation: 77.7582 and 88.137 and 113.958 and 92.6055
[3]; log10[compound] (M) -10.199, replicate values
  DMSO-normalized antiproliferation: 96.7023 and 108.197 and 96.9121 and 90.9372
[4]
  Degradation of FKBP12F36V-Nluc (in words): potent degradation
[5]
  Effect on FKBP12WT-Nluc (in words): no effects
